In article PMC7349657, “Efficient Targeted Degradation via Reversible and Irreversible Covalent PROTACs” (Journal of the American Chemical Society, 2020):

biological target: BTK (Homo sapiens, UniProt Q06187); test: Time course of BTK degradation in Ramos and Mino cells; type: cell-based; design: endogenous in cells; host or cells: Mino (ATCC CRL-3000), Ramos (ATCC CRL-1596), K562 (NCI-60); conditions: 100 nM PROTAC, Ramos cells (RC-3: Mino cells)
Description: We followed the rate of BTK degradation facilitated by this compound series via a time course experiment in Ramos and Mino cells (Supporting Figure 3). The rates of degradation correlated well with the DC50 values observed after 24 h, with NC-1, IR-1, IR-2, and RC-3 degrading BTK within 2–4 h, while RC-2 and RC-1 required 6–24 h to reach maximum degradation.
Ramos (ATCC, CRL-1596), Mino (ATCC, CRL-3000), or K562 (NCI-60) cell lines were counted and diluted to 10^6 cell/mL, using 1 mL per well in a 24-well plate, and U2OS (ATCC HTB-96) cells overexpressing human BTK WT or C481S mutant were grown using 2 mL in a six-well plate (see Supporting Information). Cells were incubated with 1% DMSO or compound in indicated concentrations for 24 h unless indicated differently, or cells were left untreated. Lysates were prepared as previously described,[29] and samples were measured for total protein quantification by bicinchoninic acid (BCA) assay (#23225 ThermoFisher Scientific) supplemented with 4× loading buffer including 20 mM DTT, heated to 70 °C for 10 min, loaded into 4% SDS-PAGE gel, run for 45 min at 140 mV, then transferred into a nitrocellulose membrane (Biorad) using a Trans-Blot Turbo transfer system (Biorad). The membrane was stained with Ponceau (Sigma) to validate transfer for 10 min in gentle agitation then destained for 1 h with MQ water. The membrane was blocked with Licor blocking buffer (LIC927-70001) for 1 h, washed three times for 5 min with TBS-T, incubated with primary antibody BTK (D3H5) rabbit mAb (CST; 8547 S) overnight (16 h) at 4 °C, washed three times for 5 min with TBS-T, and incubated with primary antibody against β-actin (CST; 3700) for 1 h at 25 °C. Membrane was washed three times for 5 min with TBS-T, incubated with fluorescent secondary antibodies anti-mouse IgG Alexa Fluor 647 (CST: 4410S) and anti-rabbit-IgG IRDye 800(LICOR: 926-32211) for 1 h, then washed three times for 5 min with TBS-T, dried, and immediately imaged and analyzed using Licor Odyssey CLx. Prism (GraphPad) software was used to calculate degradation levels. We used second-order polynomial fits to estimate DC50 and Dmax values.
Supplementary Figure 3: BTK degradation time dependency.
Ramos (PI3I, RC-1, I R-1, R C-2, I R-2, NC-1) or Mino ( RC-3) cells were treated with 100 nM of PROTAC or DMSO for indicated times, subsequently harvested for BTK levels measurement via western blot.
(1 picture or pasted object on this page, not shown here)

Chain of BTK (Q06187 whole entry): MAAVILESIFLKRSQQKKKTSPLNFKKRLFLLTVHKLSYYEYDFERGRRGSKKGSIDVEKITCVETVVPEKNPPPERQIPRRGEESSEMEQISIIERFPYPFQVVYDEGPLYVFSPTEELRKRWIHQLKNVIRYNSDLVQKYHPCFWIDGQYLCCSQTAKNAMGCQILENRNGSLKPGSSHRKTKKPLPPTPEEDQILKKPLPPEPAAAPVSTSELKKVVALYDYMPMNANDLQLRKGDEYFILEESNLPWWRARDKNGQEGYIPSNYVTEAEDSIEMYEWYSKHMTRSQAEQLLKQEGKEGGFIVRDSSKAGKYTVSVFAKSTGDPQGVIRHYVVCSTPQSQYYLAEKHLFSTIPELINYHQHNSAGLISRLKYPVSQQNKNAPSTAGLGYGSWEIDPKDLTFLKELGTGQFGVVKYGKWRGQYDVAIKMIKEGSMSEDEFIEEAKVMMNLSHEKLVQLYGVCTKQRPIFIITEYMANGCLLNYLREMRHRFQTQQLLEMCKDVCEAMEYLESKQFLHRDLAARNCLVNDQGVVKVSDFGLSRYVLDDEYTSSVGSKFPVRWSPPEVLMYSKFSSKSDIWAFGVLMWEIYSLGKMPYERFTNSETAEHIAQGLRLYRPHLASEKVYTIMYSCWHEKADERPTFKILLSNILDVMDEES

**Q.** Which “time to degrade BTK / reach maximum degradation” value does the source give for Nc1ncnc2c1c(-c1ccc(Oc3ccccc3)cc1)nn2C1CCCN(C(=O)C=CCOCCOCCOCCOCCOCCOc2cccc3c2C(=O)N(C2CCC(=O)NC2=O)C3=O)C1 (centres unmarked) [IR-1] here?
**A.** 2 to 4 h

**Q.** With Nc1ncnc2c1c(-c1ccc(Oc3ccccc3)cc1)nn2C1CCCN(C(=O)C=CCCCCOCCOCCOCCOCCOc2cccc3c2C(=O)N(C2CCC(=O)NC2=O)C3=O)C1 (centres unmarked) [IR-2] as the compound, how does the “time to degrade BTK / reach maximum degradation” value read?
**A.** 2 to 4 h

**Q.** How did the “time to degrade BTK / reach maximum degradation” value turn out when Nc1ncnc2c1c(-c1ccc(Oc3ccccc3)cc1)nn2C1CCCN(C(=O)CCCCCCOCCOCCOCCOCCOc2cccc3c2C(=O)N(C2CCC(=O)NC2=O)C3=O)C1 (centres unmarked) [NC-1] was run?
**A.** 2 to 4 h

**Q.** For N#CC(=CCCCCOCCOCCOCCOCCOc1cccc2c1C(=O)N(C1CCC(=O)NC1=O)C2=O)C(=O)N1CCCC(n2nc(-c3ccc(Oc4ccccc4)cc3)c3c(N)ncnc32)C1 (centres unmarked) [RC-2], which “time to degrade BTK / reach maximum degradation” value is on record?
**A.** 6 to 24 h

**Q.** Which “time to degrade BTK / reach maximum degradation” value does the source give for CC(C)(C=C(C#N)C(=O)N1CCCC(n2nc(-c3ccc(Oc4ccccc4)cc3)c3c(N)ncnc32)C1)CCCOCCOCCOCCOCCOc1cccc2c1C(=O)N(C1CCC(=O)NC1=O)C2=O (centres unmarked) [RC-3] here?
**A.** 2 to 4 h
